Measured values taken from patent publication US20250000872A1, “FORMULATIONS AND DOSING REGIMENS FOR RIP1 KINASE INHIBITORS FOR TREATING AUTOIMMUNE AND INFLAMMATORY DISEASES” (Eli Lilly and Company, priority 2023, published 2025).

Experiments:
[1] = tested on: monkeys; experiment: Repeat-dose toxicity studies in monkeys (up to 9-month); format: in vivo
[2] = as above; format: in vivo; settings: monkey, in vivo
[3] = Phase I first-in-human study: safety, tolerability and PK of single and multiple doses in healthy volunteers; format: in vivo; settings: for AUC(0-t): human, estimated from AUC0-∞ at single dose of 125 mg in phase 1 study Part 3
Description: The study was conducted in 3 parts: single-ascending doses (Part 1A), multiple-ascending doses (Part 2), and formulation assessment (Part 1B and Part 3).

[4] = target: T1, BCRP (Homo sapiens, UniProt Q9UNQ0); experiment: In vitro drug-drug interaction studies: BCRP transporter inhibition; format: in vitro ADME; settings: based upon in vitro studies
T1 sequence (Q9UNQ0 1-655): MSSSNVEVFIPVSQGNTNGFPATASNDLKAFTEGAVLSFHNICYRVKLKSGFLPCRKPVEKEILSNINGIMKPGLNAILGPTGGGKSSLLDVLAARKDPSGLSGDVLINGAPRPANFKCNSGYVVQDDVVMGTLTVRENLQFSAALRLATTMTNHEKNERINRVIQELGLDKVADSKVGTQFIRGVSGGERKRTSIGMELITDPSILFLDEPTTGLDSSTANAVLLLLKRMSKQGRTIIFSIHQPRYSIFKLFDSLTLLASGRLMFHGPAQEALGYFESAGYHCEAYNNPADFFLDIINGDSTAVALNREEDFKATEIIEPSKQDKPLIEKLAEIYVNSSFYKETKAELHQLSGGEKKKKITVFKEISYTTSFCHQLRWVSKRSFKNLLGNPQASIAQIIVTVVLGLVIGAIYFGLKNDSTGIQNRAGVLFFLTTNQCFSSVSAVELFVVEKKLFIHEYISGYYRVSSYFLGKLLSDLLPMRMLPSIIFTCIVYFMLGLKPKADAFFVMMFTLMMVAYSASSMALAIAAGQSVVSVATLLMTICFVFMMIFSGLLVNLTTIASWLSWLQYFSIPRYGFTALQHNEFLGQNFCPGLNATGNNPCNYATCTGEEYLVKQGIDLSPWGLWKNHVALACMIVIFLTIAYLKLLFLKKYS

[5] = Phase 1 open-label single-dose fixed-sequence study: solid dispersion oral suspension vs crystalline freebase tablet, healthy participants; format: in vivo, human; settings: amorphous vs corresponding crystalline preparation
Excerpt: Each participant received both formulations in 2 separate dosing periods.
The median tmax was longer for the tablet compared with the oral suspension. The geometric mean t1/2 was similar between formulations. […] Between-participant CV for AUC (0-tlast), AUC (0-∞), and Cmax was higher for the tablet compared with the oral suspension.

[6] = target: P-gp (Homo sapiens, UniProt P08183); experiment: In vitro drug-drug interaction studies: P-gp transporter inhibition; format: in vitro ADME; settings: based upon in vitro studies
[7] = target: T2, OATP1B3 (Homo sapiens, UniProt Q9NPD5); experiment: In vitro drug-drug interaction studies: OATP1B3 transporter inhibition; format: in vitro ADME; settings: based upon in vitro studies
T2 sequence (Q9NPD5 1-702): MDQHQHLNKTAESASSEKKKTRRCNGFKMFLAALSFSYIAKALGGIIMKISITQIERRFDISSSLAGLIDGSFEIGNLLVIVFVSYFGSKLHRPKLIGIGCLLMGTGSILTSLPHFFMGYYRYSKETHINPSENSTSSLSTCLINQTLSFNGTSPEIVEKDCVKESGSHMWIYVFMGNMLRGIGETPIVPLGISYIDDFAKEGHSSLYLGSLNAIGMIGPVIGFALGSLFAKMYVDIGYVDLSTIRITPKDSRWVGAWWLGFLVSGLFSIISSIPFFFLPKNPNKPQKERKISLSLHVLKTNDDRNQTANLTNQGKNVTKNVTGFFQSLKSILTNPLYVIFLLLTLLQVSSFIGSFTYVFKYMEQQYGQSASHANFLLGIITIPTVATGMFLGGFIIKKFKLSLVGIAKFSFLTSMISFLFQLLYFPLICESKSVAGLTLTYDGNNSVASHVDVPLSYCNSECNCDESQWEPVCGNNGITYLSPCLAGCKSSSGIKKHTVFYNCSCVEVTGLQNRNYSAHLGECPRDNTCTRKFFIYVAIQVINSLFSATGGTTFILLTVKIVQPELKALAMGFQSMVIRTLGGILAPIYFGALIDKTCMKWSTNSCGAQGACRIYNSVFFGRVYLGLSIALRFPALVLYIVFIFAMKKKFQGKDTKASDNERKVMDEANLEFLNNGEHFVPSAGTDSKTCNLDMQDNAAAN

[8] = tested on: CYP3A; experiment: In vitro drug-drug interaction studies: CYP3A inhibition; format: in vitro ADME; settings: based upon in vitro studies
[9] = Yan et al. ASCPT 2021 poster, cited from earlier work
[10] = target: T3, OCT1 (Homo sapiens, UniProt O15245); experiment: In vitro drug-drug interaction studies: OCT1 transporter inhibition; format: in vitro ADME; settings: based upon in vitro studies
T3 sequence (O15245 1-554): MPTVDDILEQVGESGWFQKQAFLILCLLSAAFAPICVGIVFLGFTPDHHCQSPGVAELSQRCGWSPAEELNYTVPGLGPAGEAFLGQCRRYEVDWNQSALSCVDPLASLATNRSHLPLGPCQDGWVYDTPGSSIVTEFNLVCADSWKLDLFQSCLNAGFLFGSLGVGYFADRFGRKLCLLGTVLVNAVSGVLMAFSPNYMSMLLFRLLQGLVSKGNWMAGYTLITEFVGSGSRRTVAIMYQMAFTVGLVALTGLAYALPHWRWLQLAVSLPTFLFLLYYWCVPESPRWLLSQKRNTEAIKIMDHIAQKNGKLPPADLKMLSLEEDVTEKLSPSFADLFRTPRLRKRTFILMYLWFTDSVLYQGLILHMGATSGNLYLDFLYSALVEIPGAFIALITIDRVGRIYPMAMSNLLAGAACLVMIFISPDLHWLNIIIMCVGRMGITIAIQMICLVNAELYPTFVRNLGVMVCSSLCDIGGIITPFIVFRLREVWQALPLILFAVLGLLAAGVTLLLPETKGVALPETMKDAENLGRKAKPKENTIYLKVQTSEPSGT

[11] = AUC in animals/(predicted) AUC in humans

P-gp, sequence (P08183 whole entry): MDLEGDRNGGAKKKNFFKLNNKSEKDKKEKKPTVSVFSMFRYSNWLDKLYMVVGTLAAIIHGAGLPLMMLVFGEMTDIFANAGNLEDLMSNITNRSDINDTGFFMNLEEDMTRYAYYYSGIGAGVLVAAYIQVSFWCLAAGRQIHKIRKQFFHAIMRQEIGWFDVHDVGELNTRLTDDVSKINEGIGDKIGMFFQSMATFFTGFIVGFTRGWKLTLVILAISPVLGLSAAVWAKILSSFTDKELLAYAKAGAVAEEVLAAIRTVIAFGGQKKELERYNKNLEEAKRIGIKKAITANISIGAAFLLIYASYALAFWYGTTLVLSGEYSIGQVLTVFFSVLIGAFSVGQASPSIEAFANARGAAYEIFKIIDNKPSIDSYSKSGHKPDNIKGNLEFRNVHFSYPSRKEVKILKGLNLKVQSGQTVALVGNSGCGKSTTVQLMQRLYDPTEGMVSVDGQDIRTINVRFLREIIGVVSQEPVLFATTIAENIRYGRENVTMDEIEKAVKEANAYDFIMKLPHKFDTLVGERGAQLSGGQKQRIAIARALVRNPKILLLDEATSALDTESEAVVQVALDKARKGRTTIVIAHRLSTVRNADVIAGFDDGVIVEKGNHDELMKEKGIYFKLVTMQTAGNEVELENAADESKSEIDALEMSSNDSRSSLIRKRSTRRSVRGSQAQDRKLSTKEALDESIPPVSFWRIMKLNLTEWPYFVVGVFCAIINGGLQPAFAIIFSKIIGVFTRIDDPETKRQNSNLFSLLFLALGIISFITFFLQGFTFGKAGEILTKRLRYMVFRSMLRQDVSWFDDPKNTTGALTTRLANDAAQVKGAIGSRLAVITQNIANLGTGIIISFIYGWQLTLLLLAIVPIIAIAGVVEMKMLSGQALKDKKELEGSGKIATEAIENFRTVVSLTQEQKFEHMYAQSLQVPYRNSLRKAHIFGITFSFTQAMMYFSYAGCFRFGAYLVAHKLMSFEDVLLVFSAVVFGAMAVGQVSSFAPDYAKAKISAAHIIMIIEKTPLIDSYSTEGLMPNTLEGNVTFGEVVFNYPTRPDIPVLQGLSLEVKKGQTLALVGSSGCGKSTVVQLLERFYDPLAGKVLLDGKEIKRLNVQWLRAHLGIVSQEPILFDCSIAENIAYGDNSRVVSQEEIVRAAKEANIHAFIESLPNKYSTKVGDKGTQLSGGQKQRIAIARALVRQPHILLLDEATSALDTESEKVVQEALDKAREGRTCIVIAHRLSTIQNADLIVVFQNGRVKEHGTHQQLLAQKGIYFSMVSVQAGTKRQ

## CN1C(=O)[C@@H](NC(=O)c2n[nH]c(Cc3ccccc3)n2)COc2ccc(C#CC(C)(C)O)cc21 [Compound I, (S)-5-benzyl-N-(7-(3-hydroxy-3-methylbut-1-yn-1-yl)-5-methyl-4-oxo-2,3,4,5-tetrahydrobenzo[b][1,4]oxazepin-3-yl)-1H-1,2,4-triazole-3-carboxamide]
[1]; [11]
  Margin of Safety, monkey NOAEL vs human 50 mg: 17 X
  Margin of Safety, monkey NOAEL vs human 125 mg: 7 X
[1]; monkeys, toxicology studies up to 9 months
  doses with mortality related to secondary infections: ≥ 250 mg/kg/day
[2]
  NOAEL at 9 months: 150 mg/kg
[2]; po, plasma toxicokinetics on Day 273, 150 mg/kg/day, read-out: AUC0-24 at monkey NOAEL
  AUC(0-t): 278 µg·h/mL
[3]; dose range of 12 to 1000 mg
  Exposure versus dose: increased in a proportional manner
[3]; plasma, oral, 0.7 mg/kg/day, read-out: AUC0-24, human dose 50 mg
  AUC(0-t): 16 µg·h/mL
[3]; plasma, oral, 1.8 mg/kg/day, read-out: AUC0-24, human dose 125 mg
  AUC(0-t): 40.1 µg·h/mL
[3]; plasma, oral, human subjects
  half-life: 13 to 15 h
[4]
  inhibition of substrates of BCRP transporter: may also inhibit
[5]
  bioavailability, amorphous state (solid dispersion) over crystalline form: significantly improved
[6]
  inhibition of substrates of P-gp transporter: may also inhibit
[7]
  inhibition of substrates of OATP1B3 transporter: may also inhibit
[8]
  inhibition of drugs metabolized by CYP3A: may inhibit
[9]; following single and multiple doses
  safety and tolerability: generally safe, and well tolerated
[9]; tested dose range up to 1000 mg
  pharmacokinetics linearity: linear pharmacokinetics
[10]
  inhibition of substrates of OCT1 transporter: may also inhibit
